The record followed here is patent publication US12448392B2, “Spiropiperidine derivatives” (89BIO LTD, priority 2016, dated 2025).

Molecules are shown by their SMILES.

T1 sequence (P49327 whole entry): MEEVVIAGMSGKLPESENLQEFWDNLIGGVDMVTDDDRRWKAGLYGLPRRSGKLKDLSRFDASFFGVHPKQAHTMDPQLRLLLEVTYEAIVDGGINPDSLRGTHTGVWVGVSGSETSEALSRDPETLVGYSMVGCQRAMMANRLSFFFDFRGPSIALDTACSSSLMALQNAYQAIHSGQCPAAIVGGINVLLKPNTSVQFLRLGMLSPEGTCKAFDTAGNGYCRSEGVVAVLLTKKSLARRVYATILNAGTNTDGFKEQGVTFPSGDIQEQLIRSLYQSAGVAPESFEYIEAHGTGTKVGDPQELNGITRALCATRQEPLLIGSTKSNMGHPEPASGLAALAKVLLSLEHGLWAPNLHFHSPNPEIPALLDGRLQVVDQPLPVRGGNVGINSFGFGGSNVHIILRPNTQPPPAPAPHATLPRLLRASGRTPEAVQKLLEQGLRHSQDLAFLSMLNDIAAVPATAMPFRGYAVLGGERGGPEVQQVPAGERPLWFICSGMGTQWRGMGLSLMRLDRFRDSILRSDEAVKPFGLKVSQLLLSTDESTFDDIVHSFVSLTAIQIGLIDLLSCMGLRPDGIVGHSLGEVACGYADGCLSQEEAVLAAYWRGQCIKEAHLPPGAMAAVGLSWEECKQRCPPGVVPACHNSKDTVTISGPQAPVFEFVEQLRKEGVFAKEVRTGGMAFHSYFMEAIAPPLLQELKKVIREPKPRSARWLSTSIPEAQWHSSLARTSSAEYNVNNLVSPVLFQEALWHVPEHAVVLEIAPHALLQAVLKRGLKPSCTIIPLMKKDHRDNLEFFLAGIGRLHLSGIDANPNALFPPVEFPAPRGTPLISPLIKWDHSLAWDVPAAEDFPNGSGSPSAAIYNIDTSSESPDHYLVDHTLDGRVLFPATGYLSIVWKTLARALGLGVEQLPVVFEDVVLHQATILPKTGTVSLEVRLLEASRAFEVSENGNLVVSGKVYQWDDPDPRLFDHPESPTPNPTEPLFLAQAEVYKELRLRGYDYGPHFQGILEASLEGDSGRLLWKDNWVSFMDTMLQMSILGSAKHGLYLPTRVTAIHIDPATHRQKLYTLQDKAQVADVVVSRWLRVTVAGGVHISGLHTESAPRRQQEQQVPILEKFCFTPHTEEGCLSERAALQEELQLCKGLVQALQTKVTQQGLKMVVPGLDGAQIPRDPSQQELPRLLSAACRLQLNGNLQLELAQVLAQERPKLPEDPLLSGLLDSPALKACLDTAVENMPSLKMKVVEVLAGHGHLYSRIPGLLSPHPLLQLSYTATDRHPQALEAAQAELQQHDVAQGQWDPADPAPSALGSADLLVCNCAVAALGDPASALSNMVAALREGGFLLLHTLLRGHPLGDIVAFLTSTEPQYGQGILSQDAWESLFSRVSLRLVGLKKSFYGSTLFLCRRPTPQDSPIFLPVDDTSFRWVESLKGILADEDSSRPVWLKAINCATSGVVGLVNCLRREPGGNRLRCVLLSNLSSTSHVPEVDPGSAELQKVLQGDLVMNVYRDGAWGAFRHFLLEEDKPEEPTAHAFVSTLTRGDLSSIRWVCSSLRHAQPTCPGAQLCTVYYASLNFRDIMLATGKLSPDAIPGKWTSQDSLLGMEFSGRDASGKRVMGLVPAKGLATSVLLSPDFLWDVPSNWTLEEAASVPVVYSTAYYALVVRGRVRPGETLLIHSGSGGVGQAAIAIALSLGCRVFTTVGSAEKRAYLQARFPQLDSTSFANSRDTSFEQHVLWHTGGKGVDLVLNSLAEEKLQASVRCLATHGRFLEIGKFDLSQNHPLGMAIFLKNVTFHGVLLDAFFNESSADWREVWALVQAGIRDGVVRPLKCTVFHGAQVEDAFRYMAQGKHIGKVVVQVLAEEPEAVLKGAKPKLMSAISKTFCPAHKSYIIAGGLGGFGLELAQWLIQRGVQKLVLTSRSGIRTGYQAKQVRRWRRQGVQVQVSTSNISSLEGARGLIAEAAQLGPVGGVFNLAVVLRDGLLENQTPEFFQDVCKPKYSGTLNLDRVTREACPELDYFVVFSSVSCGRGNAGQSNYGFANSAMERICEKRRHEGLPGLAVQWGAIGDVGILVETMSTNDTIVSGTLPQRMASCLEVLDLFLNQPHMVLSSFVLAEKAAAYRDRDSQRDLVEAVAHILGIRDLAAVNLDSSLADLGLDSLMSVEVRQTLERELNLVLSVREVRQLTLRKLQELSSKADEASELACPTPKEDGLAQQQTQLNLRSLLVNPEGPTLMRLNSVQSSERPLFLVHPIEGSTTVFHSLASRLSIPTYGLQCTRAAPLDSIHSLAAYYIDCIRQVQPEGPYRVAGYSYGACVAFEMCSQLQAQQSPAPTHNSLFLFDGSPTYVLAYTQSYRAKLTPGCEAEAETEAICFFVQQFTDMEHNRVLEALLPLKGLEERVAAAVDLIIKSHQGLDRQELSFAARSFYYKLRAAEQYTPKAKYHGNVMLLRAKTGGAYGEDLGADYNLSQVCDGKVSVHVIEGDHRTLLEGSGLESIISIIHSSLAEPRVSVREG

The first test concerns the target T1, recombinant human baculovirus-expressed GST-tagged FASN (Homo sapiens, UniProt P49327).
T1 construct: GST
Nature of the test: biochemical.
Details: not given
A word on the IC50: it is the concentration that inhibits the measured activity by half. `CCNC(=O)N1CCC2(CC1)OCc1cc(-c3ccc4cccnc4c3C)ccc1O2` [Example 117, N-Ethyl-6-(8-methyl-7-quinolyl)spiro[4H-1,3-benzodioxine-2,4′-piperidine]-1′-carboxamide]: the IC50 was in the range of 1 to 99 nM. Turning to `Cc1c(-c2ccc3c(c2)COC2(CCN(C(N)=O)CC2)O3)ccc2cccnc12` [Example 118, 6-(8-Methyl-7-quinolyl)spiro[4H-1,3-benzodioxine-2,4′-piperidine]-1′-carboxamide], the 50% inhibitory concentration (IC50) lay in the range of 1 to 99 nM. Consider `Cc1c(-c2ccc3c(c2)COC2(CCN(C(=O)NC(C)C)CC2)O3)ccc2cccnc12` [Example 119, N-Isopropyl-6-(8-methyl-7-quinolyl)spiro[4H-1,3-benzodioxine-2,4′-piperidine]-1′-carboxamide], for which the IC50 was in the range of 1 to 99 nM. Consider `CCONC(=O)N1CCC2(CC1)OCc1cc(-c3ccc4cccnc4c3C)ccc1O2` [Example 121, N-Ethoxy-6-(8-methyl-7-quinolyl)spiro[4H-1,3-benzodioxine-2,4′-piperidine]-1′-carboxamide], for which the IC50 was 1 to 99 nM.

Consider `CONC(=O)N1CCC2(CC1)OCc1cc(-c3ccc4cccnc4c3C)ccc1O2` [Example 122, N-Methoxy-6-(8-methyl-7-quinolyl)spiro[4H-1,3-benzodioxine-2,4′-piperidine]-1′-carboxamide], for which the IC50 fell in the range of 1 to 99 nM. Take `Cc1c(-c2ccc3c(c2)COC2(CCN(C(=O)NOC(C)C)CC2)O3)ccc2cccnc12` [Example 123, N-Isopropoxy-6-(8-methyl-7-quinolyl)spiro[4H-1,3-benzodioxine-2,4′-piperidine]-1′-carboxamide]: the IC50 fell in the range of 1 to 99 nM.

As to `CCNC(=O)N1CCC2(CC1)OCc1cc(-c3ccc4ccnn4c3C)ccc1O2` [Example 126, N-Ethyl-6-(7-methylpyrazolo[1,5-a]pyridin-6-yl)spiro[4H-1,3-benzodioxine-2,4′-piperidine]-1′-carboxamide], the IC50 fell in the range of 1 to 99 nM. With `Cc1c(-c2ccc3c(c2)COC2(CCN(C(N)=O)CC2)O3)ccc2ccnn12` [Example 127, 6-(7-Methylpyrazolo[1,5-a]pyridin-6-yl)spiro[4H-1,3-benzodioxine-2,4′-piperidine]-1′-carboxamide], the IC50 fell in the range of 100 to 999 nM. On the same count and under the same terms, as for `CONC(=O)N1CCC2(CC1)OCc1cc(-c3ccc4ccnn4c3C)ccc1O2` [Example 128, N-Methoxy-6-(7-methylpyrazolo[1,5-a]pyridin-6-yl)spiro[4H-1,3-benzodioxine-2,4′-piperidine]-1′-carboxamide], the figure is 1 to 99 nM.

In the case of `CCONC(=O)N1CCC2(CC1)OCc1cc(-c3ccc4ccnn4c3C)ccc1O2` [Example 129, N-Ethoxy-6-(7-methylpyrazolo[1,5-a]pyridin-6-yl)spiro[4H-1,3-benzodioxine-2,4′-piperidine]-1′-carboxamide], the IC50 is 1 to 99 nM. Same read-out and setting: as for `Cc1c(-c2ccc3c(c2)COC2(CCN(C(=O)NOC(C)C)CC2)O3)ccc2ccnn12` [Example 130, N-Isopropoxy-6-(7-methylpyrazolo[1,5-a]pyridin-6-yl)spiro[4H-1,3-benzodioxine-2,4′-piperidine]-1′-carboxamide], the figure is 1 to 99 nM; as for `NC(=O)N1CCC2(CC1)OCc1cc(-c3ccc4cccnc4c3Cl)ccc1O2` [Example 131, 6-(8-Chloro-7-quinolyl)spiro[4H-1,3-benzodioxine-2,4′-piperidine]-1′-carboxamide], 100 to 999 nM; as for `Cc1c(-c2ccc3c(c2)COC2(CCN(C(N)=O)CC2)O3)cnc2ccccc12` [Example 132, 6-(4-Methyl-3-quinolyl)spiro[4H-1,3-benzodioxine-2,4′-piperidine]-1′-carboxamide], 100 to 999 nM. Take `CONC(=O)N1CCC2(CC1)OCc1cc(-c3cnc4ccccc4c3C)ccc1O2` [Example 133, N-Methoxy-6-(4-methyl-3-quinolyl)spiro[4H-1,3-benzodioxine-2,4′-piperidine]-1′-carboxamide]: the IC50 lay within 1 to 99 nM. Regarding `CONC(=O)N1CCC2(CC1)OCc1cc(-c3ccc4cccnc4c3Cl)ccc1O2` [Example 134, 6-(8-Chloro-7-quinolyl)-N-methoxy-spiro[4H-1,3-benzodioxine-2,4′-piperidine]-1′-carboxamide], the IC50 was in the range of 1 to 99 nM. Take `CCONC(=O)N1CCC2(CC1)OCc1cc(-c3ccc4cccnc4c3Cl)ccc1O2` [Example 135, 6-(8-Chloro-7-quinolyl)-N-ethoxy-spiro[4H-1,3-benzodioxine-2,4′-piperidine]-1′-carboxamide]: the IC50 was 1 to 99 nM. For the compound `O=C(NO)N1CCC2(CC1)OCc1cc(-c3ccc4cccnc4c3Cl)ccc1O2` [Example 136, 6-(8-Chloro-7-quinolyl)spiro[4H-1,3-benzodioxine-2,4′-piperidine]-1′-carbohydroxamic acid], the IC50 fell in the range of 100 to 999 nM. As to `CCOC(=O)N1CCC2(CC1)OCc1cc(-c3ccc4cccnc4c3Cl)ccc1O2` [Example 137, Ethyl 6-(8-chloro-7-quinolyl)spiro[4H-1,3-benzodioxine-2,4′-piperidine]-1′-carboxylate], the IC50 fell in the range of 1000 to 10000 nM. On to `CCOC(=O)N1CCC2(CC1)OCc1cc(-c3cnc4ccccc4c3C)ccc1O2` [Example 138, Ethyl 6-(4-methyl-3-quinolyl)spiro[4H-1,3-benzodioxine-2,4′-piperidine]-1′-carboxylate], for which the IC50 is 100 to 999 nM. Turning to `CCONC(=O)N1CCC2(CC1)OCc1cc(-c3cnc4ccccc4c3C)ccc1O2` [Example 139, N-Ethoxy-6-(4-methyl-3-quinolyl)spiro[4H-1,3-benzodioxine-2,4′-piperidine]-1′-carboxamide], the 50% inhibitory concentration (IC50) fell in the range of 1 to 99 nM. As to `Cc1c(-c2ccc3c(c2)COC2(CCN(C(=O)NO)CC2)O3)cnc2ccccc12` [Example 140, 6-(4-Methyl-3-quinolyl)spiro[4H-1,3-benzodioxine-2,4′-piperidine]-1′-carbohydroxamic acid], the IC50 was in the range of 1000 to 10000 nM. In the case of `NC(=O)N1CCC2(CC1)OCc1cc(-c3cc4ccccc4cn3)ccc1O2` [Example 142, 6-(3-Isoquinolyl)spiro[4H-1,3-benzodioxine-2,4′-piperidine]-1′-carboxamide], the IC50 lay within 1000 to 10000 nM. In the case of `O=C(NOC1CCCCO1)N1CCC2(CC1)OCc1cc(-c3cc4ccccc4cn3)ccc1O2` (stereo not shown) [Example 144, 6-(3-Isoquinolyl)-N-tetrahydropyran-2-yloxy-spiro[4H-1,3-benzodioxine-2,4′-piperidine]-1′-carboxamide], the half-inhibitory concentration (IC50) was in the range of 100 to 999 nM. As to `CCONC(=O)N1CCC2(CC1)OCc1cc(-c3cc4ccccc4cn3)ccc1O2` [Example 145, N-Ethoxy-6-(3-isoquinolyl)spiro[4H-1,3-benzodioxine-2,4′-piperidine]-1′-carboxamide], the IC50 was 1 to 99 nM. For the compound `CONC(=O)N1CCC2(CC1)OCc1cc(-c3cc4ccccc4cn3)ccc1O2` [Example 147, 6-(3-Isoquinolyl)-N-methoxy-spiro[4H-1,3-benzodioxine-2,4′-piperidine]-1′-carboxamide], the IC50 lay in the range of 1 to 99 nM. As for `O=C(NO)N1CCC2(CC1)OCc1cc(-c3cc4ccccc4cn3)ccc1O2` [Example 150, 6-(3-Isoquinolyl)spiro[4H-1,3-benzodioxine-2,4′-piperidine]-1′-carbohydroxamic acid], the IC50 was in the range of 1000 to 10000 nM.

The test is the same for the next values; noted with them: 5 nM FASN, 150 μM NADPH, 10 μM acetyl-CoA, 25 μM malonyl-CoA, 90 minutes incubation; read-out: IC50 data for Compounds of Formula I, Activity.
Regarding `Cc1c(-c2ccc3c(c2)CCC2(CCN(C(N)=O)CC2)O3)ccc2ccnn12` [Example 114, 6-(7-Methylpyrazolo[1,5-a]pyridin-6-yl)spiro[chromane-2,4′-piperidine]-1′-carboxamide], the IC50 was in the range of 1 to 99 nM.

On to `CCONC(=O)N1CCC2(CCc3cc(-c4ccc5ccnn5c4C)ccc3O2)CC1` [Example 115, N-Ethoxy-6-(7-methylpyrazolo[1,5-a]pyridin-6-yl)spiro[chromane-2,4′-piperidine]-1′-carboxamide], for which the IC50 lay in the range of 1 to 99 nM. As to `Cc1c(-c2ccc3c(c2)CCC2(CCN(C(=O)NOC(C)C)CC2)O3)ccc2ccnn12` [Example 116, N-Isopropoxy-6-(7-methylpyrazolo[1,5-a]pyridin-6-yl)spiro[chromane-2,4′-piperidine]-1′-carboxamide], the IC50 was 1 to 99 nM.

As to `CONC(=O)N1CCC2(CCc3cc(-c4ccc5cccnc5c4C)ccc3O2)CC1` [Example 120, N-Methoxy-6-(8-methyl-7-quinolyl)spiro[chromane-2,4′-piperidine]-1′-carboxamide], the IC50 lay within 1 to 99 nM. On to `CONC(=O)N1CCC2(CCc3cc(-c4ccc5ccnn5c4C)ccc3O2)CC1` [Example 124, N-Methoxy-6-(7-methylpyrazolo[1,5-a]pyridin-6-yl)spiro[chromane-2,4′-piperidine]-1′-carboxamide], for which the IC50 was 1 to 99 nM.

Consider `Cc1c(-c2ccc3c(c2)CCC2(CCN(C(=O)NO)CC2)O3)ccc2ccnn12` [Example 125, 6-(7-Methylpyrazolo[1,5-a]pyridin-6-yl)spiro[chromane-2,4′-piperidine]-1′-carbohydroxamic acid], for which the half-maximal inhibitory concentration (IC50) lay in the range of 1000 to 10000 nM. For `Cc1c(-c2ccc3c(c2)CCC2(CCN(C(=O)NO)CC2)O3)ccc2nccn12` [Example 141, 6-(5-Methylimidazo[1,2-a]pyridin-6-yl)spiro[chromane-2,4′-piperidine]-1′-carbohydroxamic acid], the IC50 lay in the range of 1000 to 10000 nM. As for `NC(=O)N1CCC2(CCc3cc(-c4cc5ccccc5cn4)ccc3O2)CC1` [Example 143, 6-(3-Isoquinolyl)spiro[chromane-2,4′-piperidine]-1′-carboxamide], the 50% inhibitory concentration (IC50) fell in the range of 1000 to 10000 nM. On to `O=C(NOC1CCCCO1)N1CCC2(CCc3cc(-c4cc5ccccc5cn4)ccc3O2)CC1` (stereo not shown) [Example 146, 6-(3-Isoquinolyl)-N-tetrahydropyran-2-yloxy-spiro[chromane-2,4′-piperidine]-1′-carboxamide], for which the IC50 was 100 to 999 nM.

In the case of `CONC(=O)N1CCC2(CCc3cc(-c4cc5ccccc5cn4)ccc3O2)CC1` [Example 148, 6-(3-Isoquinolyl)-N-methoxy-spiro[chromane-2,4′-piperidine]-1′-carboxamide], the half-inhibitory concentration (IC50) fell in the range of 1 to 99 nM. Regarding `CCONC(=O)N1CCC2(CCc3cc(-c4cc5ccccc5cn4)ccc3O2)CC1` [Example 149, N-Ethoxy-6-(3-isoquinolyl)spiro[chromane-2,4′-piperidine]-1′-carboxamide], the IC50 was 1 to 99 nM.
